In article PMC9696254, “Discovery of p-Terphenyl Metabolites as Potential Phosphodiesterase PDE4D Inhibitors from the Coral-Associated Fungus Aspergillus sp. ITBBc1” (Marine Drugs, 2022):

Target: PDE4D (Homo sapiens, UniProt Q08499)
Experiment: in vitro PDE4D inhibition assay, liquid scintillation counting, three independent experiments
Type: biochemical

Chain of PDE4D (Q08499 whole entry): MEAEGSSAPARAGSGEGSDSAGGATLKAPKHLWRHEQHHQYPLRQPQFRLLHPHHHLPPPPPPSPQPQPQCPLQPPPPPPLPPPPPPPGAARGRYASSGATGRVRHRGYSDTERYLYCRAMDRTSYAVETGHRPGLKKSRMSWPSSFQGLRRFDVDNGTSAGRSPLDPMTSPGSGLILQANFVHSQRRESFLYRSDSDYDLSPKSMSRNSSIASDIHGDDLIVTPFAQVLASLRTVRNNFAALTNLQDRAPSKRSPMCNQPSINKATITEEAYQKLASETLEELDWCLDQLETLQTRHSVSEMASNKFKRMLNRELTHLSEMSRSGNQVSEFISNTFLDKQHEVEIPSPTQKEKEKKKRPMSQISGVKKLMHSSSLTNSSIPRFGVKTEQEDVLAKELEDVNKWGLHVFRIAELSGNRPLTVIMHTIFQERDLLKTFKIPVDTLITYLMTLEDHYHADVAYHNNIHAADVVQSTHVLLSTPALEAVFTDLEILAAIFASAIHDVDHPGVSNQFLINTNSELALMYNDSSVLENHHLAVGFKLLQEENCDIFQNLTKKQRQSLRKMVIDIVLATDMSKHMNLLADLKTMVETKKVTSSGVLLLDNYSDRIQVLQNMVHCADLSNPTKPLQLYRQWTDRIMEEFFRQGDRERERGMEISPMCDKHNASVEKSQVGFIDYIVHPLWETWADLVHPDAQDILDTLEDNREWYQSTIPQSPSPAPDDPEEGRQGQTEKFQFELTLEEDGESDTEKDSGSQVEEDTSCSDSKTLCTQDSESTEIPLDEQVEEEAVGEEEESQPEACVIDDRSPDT

## COc1cc(-c2ccccc2)c(OC)c(O)c1-c1ccc2c(c1)C=CC(C)(C)O2 [compound 3, Sanshamycin C]
  IC50: 5.54 ± 0.24 µM
